In article PMC11418212, “Characterization of four structurally diverse inhibitors of SUR2-containing KATP channels” (Channels, 2024) one finds inhibition and IC50 data, which are given here for four compounds.

SMILES strings stand for the structures. Where “and” joins values, the source holds several entries; their conditions need not be identical. Equal values may be shown once. Some results are limits rather than exact numbers.

This test has as its target T1, Kir4.2 (Homo sapiens, UniProt Q99712).
T1 construct: expressed in transfected cells
T1 sequence (Q99712 1-375): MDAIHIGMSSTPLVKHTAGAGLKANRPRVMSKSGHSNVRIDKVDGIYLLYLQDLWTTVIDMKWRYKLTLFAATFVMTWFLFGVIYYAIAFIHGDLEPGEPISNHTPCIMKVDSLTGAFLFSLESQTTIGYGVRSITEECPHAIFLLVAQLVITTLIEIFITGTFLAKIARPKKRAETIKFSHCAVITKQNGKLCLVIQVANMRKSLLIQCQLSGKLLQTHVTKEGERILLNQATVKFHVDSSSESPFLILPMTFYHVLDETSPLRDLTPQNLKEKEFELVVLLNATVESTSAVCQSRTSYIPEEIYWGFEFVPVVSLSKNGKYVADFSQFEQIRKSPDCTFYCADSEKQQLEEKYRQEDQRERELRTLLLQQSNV
In words: Kir family selectivity thallium flux assay. The test is classed as cell-based. The settings on record: for inhibition at 30 µM: observed at 30 µM, read-out: Percent maximal inhibition of Kir4.2; for IC50: thallium flux.

A word on the inhibition: it is the drop in the measured response relative to a control, in per cent. Usually IC50 stands for the concentration needed to halve the response being measured.

In the case of `c1ccc2[nH]c(CSc3ncnc4c3oc3ccccc34)nc2c1` [VU0212387, 4-(((1 H-benzo[d]imidazol-2-yl)methyl)thio)benzofuro[3,2-d]pyrimidine], the inhibition at 30 µM amounted to 56%; the half-maximal inhibitory concentration (IC50) was 17 µM and 17.1 µM.

For `O=C(NCC(O)(c1ccccc1)C(F)(F)F)c1ccc(OC(F)(F)F)cc1` (stereo not drawn) [VU0543336, N-(3,3,3-trifluoro-2-hydroxy-2-phenylpropyl)-4-(trifluoromethoxy)benzamide], the inhibition at 30 µM came out at 110%; the IC50 is 12 µM and 11.8 µM.

Consider `O=C(NCc1cc(-c2ccncc2)n(C2CCCC2)n1)Nc1cccs1` [VU0544086, 1-((1-cyclopentyl-5-(pyridin-4-yl)-1 H-pyrazol-3-yl)methyl)-3-(thiophen-2-yl)urea], for which the half-maximal inhibitory concentration (IC50) was above 30 µM.

In the case of `O=C1c2oc3ccccc3c(=O)c2C(c2cccc(Br)c2)N1CCO` (stereo not drawn) [VU0605768, 1-(3-bromophenyl)-2-(2-hydroxyethyl)-1,2-dihydrochromeno[2,3-c]pyrrole-3,9-dione], the concentration for half-maximal inhibition (IC50) is above 30 µM.
